{
  "source": "patent US10738067B2",
  "about": "“Inhibitors of cyclin-dependent kinase 7 (CDK7)” (Syros Pharmaceuticals, Inc., priority 2018, dated 2020)",
  "key": {"[1]": {"system": "palbociclib and fulvestrant double-resistant ER+BC PDX model (ST941)", "assay": "Tumor growth inhibition in palbociclib and fulvestrant double-resistant ER+BC PDX model ST941", "type": "in vivo, Mice", "details": "fulvestrant 2.5 mg/kg once weekly SC; for anti-tumor activity (in words): palbociclib 50 mpk QD PO", "procedure": "(§1) Tumor growth inhibition was evaluated in estrogen receptor-positive breast cancer (ER+BC) PDX models selected in vivo for resistance to the CDK4/6 inhibitor palbociclib (ST1799, n=1) or resistance to both palbociclib and fulvestrant (ST941, n=1). Dosing was initiated when tumors were 100-200 mm^3."}, "[2]": {"system": "palbociclib-resistant ER+BC PDX (ST1799)", "assay": "Tumor growth inhibition in palbociclib-resistant ER+BC PDX model ST1799", "type": "in vivo, Mice", "details": "last day of 28 days dosing, Compound 101 6 mg/kg QD PO, fulvestrant 2.5 mg/kg once weekly SC, palbociclib 50 mpk QD PO", "procedure": "as §1"}, "[3]": {"system": "PDX models BR5010 (TNBC), LU5178 (SCLC), OV15398 (HGSOC)", "assay": "Tumor growth inhibition in TNBC, SCLC and HGSOC PDX models", "type": "in vivo, NOD/SCID mice"}, "[4]": {"assay": "Tolerability in tumor-bearing mice (PDX studies)", "details": "all once-daily doses tested", "method": "(§2) In the TNBC model, Compound 101 was orally administered to tumor-bearing NOD/SCID mice at 10 mg/kg QD or 5 mg/kg BID for 21 days. In the SCLC and HGSOC models, Compound 101 was orally administered to tumor-bearing NOD/SCID mice at 3 mg/kg BID for 21 days. In the PDAC model, Compound 101 was orally administered to tumor-bearing NOD/SCID mice at 6 mg/kg QD. In the TNBC, SCLC, and HGSOC models, tumor volume was measured during the treatment period and for an additional 21 days after treatment ceased. […] The % regression was calculated as: (Mean TV Compound 101 @ EOT)/(Mean TV Compound 101 @Day 0)×100. The same calculations were used for end of study (day 42).\n(§3) Dosing was initiated when tumors were 150-300 mm^3. Mice were treated with either Compound 101, QD (6 or 10 mg/kg once daily, by mouth) or BID (3 or 5 mg/kg twice daily, by mouth) over the course of 21 days, followed by 21 days of observation. TGI was calculated on the last day of dosing using the formula: TGI=(Vc1−Vt1)/(Vc0−Vt0), where Vc1 and Vt1 are the mean volumes of control and treated groups at the time of tumor extraction, while Vc0 and Vt0 are the same groups at the start of dosing."}, "HCC70 cells": {"system": "HCC70 cells", "assay": "HCC70 cell proliferation assay (CyQUANT Direct, 72 hours)", "type": "cell-based", "details": "Homo sapiens, inhibition of proliferation", "procedure": "The HCC70 cell line was derived from human TNBC, and we tested representative compounds of the invention, at different concentrations (from 4 μM to 126.4 pM; 0.5 log serial dilutions), for their ability to inhibit the proliferation of those cells. More specifically, we tested the same compounds tested above for CDK7 selectivity (the structures of which are shown in FIG. 1), and we used the known CDK inhibitors dinaciclib (or […]) and triptolide as positive controls. The cells were grown in ATCC-formulated RPMI-1640 medium (ATCC 30-2001) supplemented with 10% fetal bovine serum (FBS), at 37° C. in a humidified chamber in the presence of 5% CO2. We conducted proliferation assays over a 72-hour time period using a CyQUANT® Direct Cell Proliferation Assay (Life Technologies, Chicago, Ill. USA) according to the manufacturer's directions and utilizing the reagents supplied with the kit."}, "[5]": {"system": "ST390 (modeling pancreatic ductal adenocarcinoma (PDAC))", "assay": "Tumor growth inhibition in PDAC PDX model ST390", "type": "in vivo, NOD/SCID mice", "method": "as §2"}, "[6]": {"system": "12 PDX models representing SCLC, TNBC and HGSOC", "assay": "Tumor growth inhibition in 12 PDX models (SCLC, TNBC, HGSOC)", "type": "in vivo, Mice", "method": "We evaluated TGI in 12 different PDX models (Crown Biosciences) in various tumor indications with PDXs representing SCLC (n=5; LU5180, LU5178, LU5192, LU5173, LU5210), TNBC (n=4; BR5010, BR1458, BR5399, BR10014) and HGSOC (n=3; OV15398, OV5392, OV15631). Dosing was initiated when tumors were 150-300 mm^3. […] TGI was calculated on the last day of dosing using the formula: TGI=(Vc1−Vt1)/(Vc0−Vt0), where Vc1 and Vt1 are the mean volumes of control and treated groups at the time of tumor extraction, while Vc0 and Vt0 are the same groups at the start of dosing."}, "in vivo": {"assay": "in vivo", "details": "NOD/SCID, mouse, oral", "method": "as §2, §3"}},
  "data": [
    {"smiles": "C[C@]12CC[C@@H]3c4ccc(O)cc4C[C@@H](CCCCCCCCC[S+]([O-])CCCC(F)(F)C(F)(F)F)[C@H]3[C@@H]1CC[C@@H]2O", "note": "(stereo partly drawn) [fulvestrant]", "values": [
      {"measurement": "anti-tumor activity (in words)", "setting": "[1]", "result": "no activity"},
      {"measurement": "Tumor growth inhibition (TGI)", "setting": "[2]", "result": 60, "unit": "%"}
    ]},
    {"smiles": "CC(=O)c1c(C)c2cnc(Nc3ccc(N4CCNCC4)cn3)nc2n(C2CCCC2)c1=O", "note": "[palbociclib]", "values": [
      {"measurement": "anti-tumor activity (in words)", "setting": "[1]", "result": "no activity"},
      {"measurement": "Tumor growth inhibition (TGI)", "setting": "[2]", "result": 21, "unit": "%"}
    ]},
    {"smiles": "CC1(C)CC[C@H](Nc2ncc(C(F)(F)F)c(-c3c[nH]c4c(P(C)(C)=O)c(C#N)ccc34)n2)CN1", "note": "[Compound 101, (S)-7-(dimethylphosphoryl)-3-(2-((6,6-dimethylpiperidin-3-yl)amino)-5-(trifluoromethyl)pyrimidin-4-yl)-1H-indole-6-carbonitrile]", "values": [
      {"measurement": "TGI (in words)", "setting": "[3]; TNBC 10 mg/kg QD or 5 mg/kg BID, SCLC and HGSOC 3 mg/kg BID, oral, 21 days, plus 21 days observation", "result": "deep and sustained TGI, including regressions"},
      {"measurement": "transcriptional responses in xenograft tissue", "setting": "[3]; observed within 4 hours of dosing, sustained for 24 hours", "result": "Dose-dependent transcriptional responses"},
      {"measurement": "body weight loss (tolerability)", "setting": "[4]", "result": "no evident body weight loss"},
      {"measurement": "EC50", "setting": "HCC70 cells", "result": 5.6, "unit": "nM"},
      {"measurement": "Tumor growth inhibition (TGI)", "setting": "[5]; 6 mg/kg QD PO, over ~28 days, sub-MTD dose", "result": 100, "unit": "%"},
      {"measurement": "tumor volume", "setting": "[5]; day 21, 6 mg/kg QD, PO", "result": "about 250 mm^3"},
      {"measurement": "Tumor growth inhibition (TGI)", "setting": "[1]; last day of 28 days dosing, Compound 101 6 mg/kg QD PO", "result": 33, "unit": "%"},
      {"measurement": "Tumor growth inhibition (TGI)", "setting": "[2]", "result": 83, "unit": "%"},
      {"measurement": "TGI at the end of the 21-day dosing period", "setting": "[6]; all 12 PDX models, 6 or 10 mg/kg QD or 3 or 5 mg/kg BID, by mouth", "result": "at least 50%"},
      {"measurement": "tumor regrowth after treatment discontinuation", "setting": "[6]; subset of models (7/12), 21 days after treatment discontinuation", "result": "no evidence of tumor regrowth"},
      {"measurement": "TGI of deep responses (TGI or regression)", "setting": "[6]; subset of models (58%, 7/12)", "result": "> 95", "unit": "%"},
      {"measurement": "MTD at 21 days", "setting": "in vivo", "result": "> 10", "unit": "mg/kg"}
    ]},
    {"smiles": "C[C@H]1CC[C@H](Nc2ncc(C(F)(F)F)c(-c3c[nH]c4c(P(C)(C)=O)c(C#N)ccc34)n2)CN1", "note": "[Compound 100, 7-dimethylphosphoryl-3-[2-[[(3S, 6S)-6-methyl-3-piper-idyl]amino]-5-(trifluoromethyl)pyrimidin-4-yl]-1H-indole-6-carbonitrile]", "values": [
      {"measurement": "EC50", "setting": "HCC70 cells", "result": 0.98, "unit": "nM"}
    ]},
    {"smiles": "CC1(C)CNC[C@@H](Nc2ncc(C(F)(F)F)c(-c3c[nH]c4c(P(C)(C)=O)c(C#N)ccc34)n2)C1", "note": "[Compound 102, (S)-7-(dimethylphosphoryl)-3-(2-((5,5-dimethylpiperidin-3-yl)amino)-5-(trifluoromethyl)pyrimidin-4-yl)-1H-indole-6-carbonitrile]", "values": [
      {"measurement": "EC50", "setting": "HCC70 cells", "result": 2.1, "unit": "nM"}
    ]}
  ]
}
